Tests used:
[1] = system: CSF proteome (Olink Explore 384 panels, 1463 analytes); assay: Olink proteomics of cerebrospinal fluid of MS patients under therapy; assay type: in vivo, human
Description: In the present study, a platform technology (Olink® Proteomics) was used. This test utilizes a high throughput, multiplex immunoassay technology that enables the measurement of over 1000 proteins from small sample volumes. See e.g., Assarsson E, et al. PLoS One 2014; 9(4): e95192; and Cui M, et al. Lab Invest 2022, each of which is incorporated by reference in its entirety. Two sets of subjects were analyzed. First, Olink proteomics technology was used to profile the baseline CSF proteome of untreated MS patients. Second, alterations to the MS CSF proteome upon therapeutic intervention with either a B cell depleting agent alone or after transitioning to tolebrutinib, a brain penetrant Bruton's tyrosine kinase (BTK) inhibitor, was evaluated.
To establish a baseline of proteomic expression, an Olink proteomics assay was performed on the CSF of multiple groups of subjects, including healthy volunteers (HV), HTLV 1 associated myelopathy/tropical spastic paraparesis (HAM/TSP) patients, radiologically isolated syndrome (RIS) patients, clinically isolated syndrome (CIS) patients, and multiple sclerosis (MS) patients, including patients with relapsing remitting MS (RRMS), secondary progressive MS (SPMS), and primary progressive MS (PPMS). CSF samples were collected from 31 healthy volunteers and 71 treatment-naïve subjects with MS. The CSF proteome was examined using the Cardiometabolic, Inflammation, Neurology, and Oncology Olink Explore 384 panels (1463 analytes total).
Next, it was examined whether treatment with different therapies for patients having MS would result in differential proteome expression. A group of subjects with MS were treated either with an anti-CD20 antibody alone or with an anti-CD20 antibody and then transitioning to tolebrutinib, and their proteome was examined using similar techniques described in Example 1B. More specifically, the cohort of MS patients in this example included untreated patients, patients treated with a B cell depleting agent for at least six months, and patients 12 weeks and 48 weeks after transitioning from a B cell depletion therapy to tolebrutinib in a clinical trial (NCT04742400).
Several participants (age [mean±standard deviation]: 48.2±7.9 years; sex: 2 female) who had been treated with ocrelizumab for >6 months (median: 3.2 years; range: 1.8-4.0 years) were included. Participants had no signs of acute focal inflammation based on magnetic resonance imaging. CSF was collected before baseline (within 6 months since last ocrelizumab infusion), and at 12 and 48 weeks after transitioning to tolebrutinib 60 mg.
The data were sorted into two sets of comparisons. The comparisons include (1) subjects treated with an anti-CD20 antibody compared to untreated MS subjects (FIG. 3) and (2) subjects treated with tolebrutinib after transitioning from an anti-CD20 antibody compared to subjects treated with an anti-CD20 antibody (FIG. 4A).

CXCL13 = CXCL13 protein level in CSF by MSD (meso scale discovery); assay type: in vivo, human; details: MSD (FIG. 6); twelve week and forty-eight week course of tolebrutinib vs untreated, HAM/TSP or continued ocrelizumab
From the text: HV: health volunteer; HAM/TSP: HTLV-1 associated myelopathy/tropical spastic paraparesis without treatment; MS_untreated: subjects with MS but have not been treated; MS_ocrelizumab: subjects treated only with an anti-CD20 antibody; MS_tolebrutinib: subjects treated with daily doses of tolebrutinib.
Similarly, this decrease was seen when comparing subjects who continued treatment with the anti-CD20 antibody (ocrelizumab) with subjects treated with a twelve week and forty-eight week course of tolebrutinib. FIGS. 4D, 5, and 6.

[2] = CSF, subjects treated with anti-CD20 antibody for at least six months vs untreated MS subjects
[3] = CSF, 48 weeks after transitioning from anti-CD20 antibody to tolebrutinib 60 mg vs anti-CD20 antibody
[4] = CSF, 48 weeks post-transition to tolebrutinib vs anti-CD20

## anti-CD20 antibody: B cell depleting agent; participants had been treated with ocrelizumab, humanized monoclonal antibody directed against the CD20 antigen
[1]; [2]
  CD6 Fold-change (antiCD20. vs. Untreated): −1.8
  CD22 Fold-change (antiCD20. vs. Untreated): −2.442
  FCRL1 Fold-change (antiCD20. vs. Untreated): −2.744
  SORD Fold-change (antiCD20. vs. Untreated): 2.045

## C=CC(=O)N1CCC[C@@H](n2c(=O)n(-c3ccc(Oc4ccccc4)cc3)c3c(N)nccc32)C1 [tolebrutinib, (R)-1-(1-acryloylpiperidin-3-yl)-4-amino-3-(4-phenoxyphenyl)-1H-imidazo[4,5-c]pyridin-2(3H)-one]
[1]; 48 weeks after transitioning from anti-CD20 therapy to tolebrutinib
  example biomarkers NEFL, CXCL13, CXCL10, CD27, CCL4 and CCL3 in CSF: disease-reversed proteins
[1]; [3]
  ANGPT1 Fold-Change (48wkBTKi. vs. antiCD20): −1.658
  ANGPTL2 Fold-Change (48wkBTKi. vs. antiCD20): −3.266
  ATXN10 Fold-Change (48wkBTKi. vs. antiCD20): −6.437
  CCL3 Fold-Change (48wkBTKi. vs. antiCD20): −2.142
  CCL4 Fold-Change (48wkBTKi. vs. antiCD20): −2.092
  CCL8 Fold-Change (48wkBTKi. vs. antiCD20): −2.68
  CCL11 Fold-Change (48wkBTKi. vs. antiCD20): −1.9597
  CCN4 Fold-Change (48wkBTKi. vs. antiCD20): −1.611
  CD4 Fold-Change (48wkBTKi. vs. antiCD20): −1.706
  CD8A Fold-Change (48wkBTKi. vs. antiCD20): −1.75
  CD38 Fold-Change (48wkBTKi. vs. antiCD20): −2.035
  CD276 Fold-Change (48wkBTKi. vs. antiCD20): −2.173
  CD302 Fold-Change (48wkBTKi. vs. antiCD20): −1.5791
  CDH3 Fold-Change (48wkBTKi. vs. antiCD20): −2.293
  CDNF Fold-Change (48wkBTKi. vs. antiCD20): −2.1
  CGREF1 Fold-Change (48wkBTKi. vs. antiCD20): −1.535
  CHRDL1 Fold-Change (48wkBTKi. vs. antiCD20): −2.236
  CLEC4C Fold-Change (48wkBTKi. vs. antiCD20): −1.714
  CLUL1 Fold-Change (48wkBTKi. vs. antiCD20): −2.021
  CTRC Fold-Change (48wkBTKi. vs. antiCD20): −2.869
  CXCL1 Fold-Change (48wkBTKi. vs. antiCD20): −3.054
  CXCL8 Fold-Change (48wkBTKi. vs. antiCD20): −1.605
  CXCL10 Fold-Change (48wkBTKi. vs. antiCD20): −3.598
  DRAXIN Fold-Change (48wkBTKi. vs. antiCD20): −2.047
  HS3ST3B1 Fold-Change (48wkBTKi. vs. antiCD20): −1.708
  HYOU1 Fold-Change (48wkBTKi. vs. antiCD20): −1.676
  IL5RA Fold-Change (48wkBTKi. vs. antiCD20): −1.716
  IL11 Fold-Change (48wkBTKi. vs. antiCD20): −6.841
  KAZALD1 Fold-Change (48wkBTKi. vs. antiCD20): −1.548
  KRT18 Fold-Change (48wkBTKi. vs. antiCD20): −1.6528
  LPL Fold-Change (48wkBTKi. vs. antiCD20): −1.744
  LTA Fold-Change (48wkBTKi. vs. antiCD20): −1.552
  MATN3 Fold-Change (48wkBTKi. vs. antiCD20): −1.889
  MFAP5 Fold-Change (48wkBTKi. vs. antiCD20): −2.536
  MSLN Fold-Change (48wkBTKi. vs. antiCD20): −2.068
  MZB1 Fold-Change (48wkBTKi. vs. antiCD20): −1.968
  NEFL Fold-Change (48wkBTKi. vs. antiCD20): −3.42
  NPDC1 Fold-Change (48wkBTKi. vs. antiCD20): −2.471
  NPTX1 Fold-Change (48wkBTKi. vs. antiCD20): −2.103
  NPY Fold-Change (48wkBTKi. vs. antiCD20): −1.797
  NTproBNP Fold-Change (48wkBTKi. vs. antiCD20): −2.314
  NUB1 Fold-Change (48wkBTKi. vs. antiCD20): −1.624
  NUCB2 Fold-Change (48wkBTKi. vs. antiCD20): −2.551
  PDCD5 Fold-Change (48wkBTKi. vs. antiCD20): −2.511
  PRL Fold-Change (48wkBTKi. vs. antiCD20): −3.416
  ROBO1 Fold-Change (48wkBTKi. vs. antiCD20): −1.511
  RTBDN Fold-Change (48wkBTKi. vs. antiCD20): −2.625
  SCG2 Fold-Change (48wkBTKi. vs. antiCD20): −2.959
  SCG3 Fold-Change (48wkBTKi. vs. antiCD20): −2.2848
  SPRY2 Fold-Change (48wkBTKi. vs. antiCD20): −1.907
  STC1 Fold-Change (48wkBTKi. vs. antiCD20): −1.863
  TDGF1 Fold-Change (48wkBTKi. vs. antiCD20): −4.457
  TIMP4 Fold-Change (48wkBTKi. vs. antiCD20): −1.776
  TNFRSF6B Fold-Change (48wkBTKi. vs. antiCD20): −2.999
  TNFRSF13B Fold-Change (48wkBTKi. vs. antiCD20): −2.063
  WFIKKN2 Fold-Change (48wkBTKi. vs. antiCD20): −2.432
  WIF1 Fold-Change (48wkBTKi. vs. antiCD20): −1.994
[1]; CSF, 48 weeks after transitioning to tolebrutinib from a B-cell depleting therapy
  share of disease-associated proteins reverting towards levels observed in healthy volunteers: 47%
[1]; [4]
  number of proteins with decreased abundance: 60 proteins
  number of proteins with increased abundance: 0 proteins
[1]; CSF, 48 weeks post-transitioning to tolebrutinib relative to anti-CD20 baseline levels
  proteins with increased abundance in subjects with MS (relative to HV) that were reversed: 30 proteins
[1]; Olink, subjects who switched from ocrelizumab to tolebrutinib (12 and 48 weeks)
  CXCL10 in CSF: downregulated
[1]; Olink, subjects who switched from ocrelizumab to tolebrutinib, twelve week and forty-eight week course
  CXCL13 in CSF: downregulated
CXCL13
  CXCL13 in CSF: decrease

— US20250354998A1, “METHODS OF DIAGNOSING AND TREATING MULTIPLE SCLEROSIS BY DETECTING A BIOMARKER IN THE CEREBROSPINAL FLUID” (Principia Biopharma Inc., priority 2023, published 2025)
